The test relates to Mycobacterium tuberculosis. In words: Antimycobacterial activity against Mycobacterium tuberculosis InhA S94A assessed as reduction in bacterial growth. In kind it is functional.

Values after ≈ are worked out from the molar mass of the structure shown.

For orientation: MIC means the smallest concentration in the dilution series that meets the test's criterion for growth inhibition. As to `Oc1cc2ccc1Oc1ccc(cc1)CCc1ccc(c(O)c1)Oc1ccc(cc1)CC2`, the minimum inhibitory concentration (MIC) amounted to 40 µg/mL (≈ 94.2 µM). Consider `CC/C(C)=C1\OC(=O)[C@H](C)[C@H](O)[C@H](Cc2cccnc2)NC(=O)[C@@H](NC(=O)c2ncccc2O)[C@@H](C)OC1=O` [PYRIDOMYCIN], for which the minimal inhibitory concentration (MIC) was determined as 0.3 µg/mL (≈ 0.555 µM).

The values are drawn from ChEMBL document CHEMBL5230110, “FabI (enoyl acyl carrier protein reductase) - A potential broad spectrum therapeutic target and its inhibitors” (Eur J Med Chem, 2020).
